Article PMC4230943, “Mimicking Hypoxia to Treat Anemia: HIF-Stabilizer BAY 85-3934 (Molidustat) Stimulates Erythropoietin Production without Hypertensive Effects” (PLoS ONE, 2014)

Key:
[1] = system: male Wistar rats; test: Subtotal nephrectomy (remnant kidney) model; type: in vivo, rat
Method: In the chronic disease models of subtotal nephrectomy and inflammation, the sodium salt of BAY 85-3934 was used. For administration in drinking water, BAY 85-3934 sodium and enalapril were prepared as 100 mM sodium bicarbonate saline solutions (adjusted to pH 7) at final concentrations of 80 ppm and 30 ppm, respectively. Sham and vehicle control animals received saline only. Unless otherwise stated, chemicals and reagents were purchased from Sigma-Aldrich.
Subtotal nephrectomy was conducted in adult male Wistar rats. Body weight, blood pressure, hematocrit, and blood cell counts were determined at baseline and thereafter at weekly intervals. At baseline, rats were randomly distributed into two groups: those that underwent subtotal nephrectomy and those that underwent a sham procedure without reduction of renal mass. Surgery was performed in deeply anesthetized (2% isoflurane in air) animals. Kidneys were accessed via a dorsolateral incision of the body wall of about 2 cm in length. The right kidney was removed after ligature of the renal peduncle, and subsequently the upper and lower pole of the left kidney were removed, followed by careful hemostasis. Approximately one third of the initial kidney mass remained (removed tissue was weighed to check this was achieved). In the sham-treated animals, both kidneys were exposed before closure of the wound. Three weeks after surgery, animals were allocated to each group in equal proportions with respect to systolic blood pressure and hematocrit values. For 5 weeks, animals were treated twice weekly with rhEPO (100 IU/kg), or once daily with […] (2.5 mg/kg or 5.0 mg/kg) or vehicle. In experiments using enalapril or a combination of BAY 85-3934 sodium and enalapril, study drugs were administered with drinking water. BAY 85-3934 sodium and enalapril were administered in drinking water at concentrations of 80 ppm and 30 ppm, respectively. This was equivalent to approximately 2 mg/kg/day for enalapril and 5 mg/kg/day for BAY 85-3934. Systolic blood pressure and heart rate were determined using the tail-cuff method (a semi-automatic, non-invasive blood pressure monitor; TSE Systems), with three repeated measurements per animal.
EPO was measured in plasma samples taken from rodents using a commercial ELISA kit (R&D Systems), according to the manufacturer’s instructions. Relative plasma EPO levels were given in picograms per milliliter. In cynomolgus monkeys, EPO was measured using a combination anti-human EPO ELISAs (R&D Systems and Roche Diagnostics), with human EPO as a standard. Values were given as units per liter. For determination of plasma prorenin from rats, a commercial ELISA (Oxford Biomedical Research) was used according to the manufacturer’s instructions. Hemoglobin in rodent blood samples was determined on a Cell-Dyn 3700 apparatus (Abbott Diagnostics). BAY 85-3934 plasma concentrations were determined after protein precipitation with acetonitrile/ammonium acetate using an internal standard, followed by separation using HPLC/mass spectrometry.
As well as anemia and inflammation, CKD is often accompanied by hypertension, upon which treatment with rhEPO may have an unfavorable impact. The effects of BAY 85-3934 were compared with rhEPO in the remnant kidney (subtotal nephrectomy) model in rats.

[2] = system: male Wistar rats; test: 26-day repeat-dose experiment, packed cell volume
Method: Male Wistar rats (240–340 g in body weight) were housed with five animals per cage for at least 1 week before experimentation. Blood samples from rats were collected under anesthesia (2% isoflurane in air) by puncturing the retro-orbital vein plexus with a glass capillary. In a repeat-dose, 26-day experiment, animals were administered vehicle or BAY 85-3934 at doses of 0.5 mg/kg, 1.25 mg/kg, 2.5 mg/kg, and 5 mg/kg. PCV was determined at baseline and at weekly intervals after centrifugation in a hematocrit capillary tube (Brand) for 10 min at full speed in a Haemofuge centrifuge (Heraeus). The number of reticulocytes in 5 µl blood was counted after staining with thiazol orange (Becton Dickinson) according to the manufacturer’s instructions by FACS analysis on a BD FACSCalibur system (Becton Dickinson). The efficacy of BAY 85-3934 (2.5 mg/kg, once-daily, oral) was also compared with that of rhEPO (25 IU/kg, 50 IU/kg, and 100 IU/kg, twice-weekly, s.c. injection). The time-course of induction of EPO mRNA expression and plasma EPO was determined at baseline and 0.5 h, 1 h, 2 h, 4 h, 6 h, and 8 h after oral administration of a single dose of BAY 85-3934 (5 mg/kg).

## O=c1c(-n2ccnn2)c[nH]n1-c1cc(N2CCOCC2)ncn1 [BAY 85-3934, 2-[6-(morpholin-4-yl)pyrimidin-4-yl]-4-(1H-1,2,3-triazol-1-yl)-1,2-dihydro-3H-pyrazol-3-one]
[1]; 2.5 mg/kg group
  mean systolic blood pressure: almost normalized values
[1]; 5 mg/kg
  systolic blood pressure versus control and rhEPO-treated animals: significantly lower
[1]; 5 mg/kg group, 2 weeks after onset of treatment
  mean PCV: exceeded 50%
[1]; 5 weeks, tail-cuff
  systolic blood pressure compared with untreated controls: sustained reduction
[1]; BAY 85-3934 2.5 and 5 mg/kg once daily, rhEPO 100 IU/kg twice weekly
  mean PCV: significantly increased
[1]; data not shown
  cardiac hypertrophy: complete prevention
[1]; once daily oral, 5 weeks
  plasma prorenin after the decrease in blood pressure: not followed by the return of prorenin to normal levels
[2]; 1.25 mg/kg once daily, by day 26
  gain in mean PCV: approximately 3%
[2]; 5 mg/kg once daily, 26 days
  mean PCV gain from baseline: 17%
[2]; 0.5–5 mg/kg, 26 days
  tolerability: well tolerated
[2]; once daily oral, 26 days
  dose from which mean PCV is significantly elevated versus vehicle: ≥ 1.25 mg/kg
